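Test compounds were applied to cells in 96-well plates for 48 hours at 5 doses. GI50: concentration for 50% inhibition of growth.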 The source made the active and inactive calls. Rule as the data show it: active = GI50 up to about 1.1 µM and inactive = higher. Some results are limits rather than exact numbers.

Common to all, as to assay: inhibition of tumour cell growth, NCI panel, 48 h
Test [1] has as its system HL-60.
Test [2] deals with PC-3.
Test [3] concerns SF-539.
Test [4] relates to OVCAR-3.
Test [5] deals with HCT-15.
Test [6] relates to HCT-116.
Test [7] deals with 786-0.
Test [8] has as its system HOP-92.
The subject of test [9] is SR.
For test [10], the system named is DU-145.
In test [11] the test system is NCI/ADR-RES.
Test [12] has as its system SN12C.
Test [13] deals with SF-268.
Test [14] has as its system RPMI-8226.
For test [15], the system named is EKVX.
Test [16] deals with LOX IMVI.
Test [17] relates to MOLT-4.
Test [18] has as its system M14.
The subject of test [19] is SK-MEL-2.
Test [20] deals with UACC-62.

With `CC(C)(C)OC(=O)NC(CSCc1ccc(C(=O)c2ccccc2)cc1)C(=O)O` (stereo unspecified), the GI50 in test [1] is > 100 µM (inactive); in [2] it was > 100 µM (inactive); in [3] it was > 100 µM (inactive); in test [4] it was > 100 µM (inactive); in test [5], more than 100 µM; in test [6], > 100 µM (inactive). Further, the GI50 in [7] was > 100 µM (inactive); in test [8] it was > 100 µM (inactive); in test [9], 87.9 µM (inactive); in test [10], > 100 µM (inactive); in test [11], > 100 µM (inactive); in test [12], > 100 µM (inactive). The GI50 in test [13] is > 100 µM (inactive); in [14], 61.5 µM (inactive); in test [15], > 100 µM (inactive); in test [16], > 100 µM (inactive); in test [17], > 100 µM (inactive).

As for `CC(=O)Nc1ccc(COC(O)CN2CCCCC2)cc1[N+](=O)[O-]` (stereo unspecified), the GI50 was > 100 µM (inactive) in [18]; > 100 µM (inactive) in test [1]; > 100 µM (inactive) in test [2]; > 100 µM (inactive) in [3]; > 100 µM (inactive) in test [4]; more than 100 µM in [5]. Besides, the GI50 in [6], in test [7], in test [19], in test [8], in test [9] and in test [10] was > 100 µM (inactive) in each case. The GI50 in test [11], in [12], in test [13], in [14], in [20] and in test [17] was > 100 µM (inactive) throughout.

As to `CC(C)CC1c2[nH]c3ccccc3c2C[C@H]2C(=O)NC(Cc3c[nH]c4ccccc34)C(=O)N12` (stereo partly specified), the GI50 in [18] is 14.1 µM (inactive); in test [1] it was 11.8 µM (inactive); in test [2], 11.1 µM (inactive); in [4] it was 7.74 µM (inactive); in test [5] it was 14.6 µM; in [6] it was 11.2 µM (inactive). For the same compound, the GI50 in test [7] is 17.5 µM (inactive); in test [19], 16 µM (inactive); in [8] it was 13.7 µM (inactive); in test [9], 14 µM (inactive); in test [10], 20.3 µM (inactive); in test [11], 18 µM (inactive). The GI50 was 15.9 µM (inactive) in [12]; 18 µM (inactive) in [13]; 13.9 µM (inactive) in test [14]; 16 µM (inactive) in test [20]; 16 µM (inactive) in [15]; 14.2 µM (inactive) in [16]. The GI50 in test [17] was 13.2 µM (inactive).

In the case of `C=CCNC(=O)NC(=O)CSC1=NC(=O)C2(NN1)c1ccccc1-c1ccccc12`, the GI50 in test [18] is > 10 µM (inactive); in [1] it was > 10 µM (inactive); in test [2], > 10 µM (inactive); in test [3], > 10 µM (inactive); in test [5] it was more than 10 µM; in test [6], > 10 µM (inactive). Also, the GI50 in [7], in [8], in test [9], in [10], in test [11] and in test [12] was > 10 µM (inactive) throughout. Moreover, the GI50 in test [13], in test [14], in test [20], in [15], in test [16] and in test [17] was > 10 µM (inactive) in each case.

Consider `COc1cc2c(NCCN(C)C)nc3c4cc5c(cc4ccc3c2cc1OC)OCO5`, for which the GI50 in test [18] is 4.03 µM (inactive); in test [1], 4.23 µM (inactive); in test [2] it was 5.04 µM (inactive); in test [3] it was 4.06 µM (inactive); in test [5] it was 2.94 µM; in [6], 3.3 µM (inactive). The GI50 is 2.95 µM (inactive) in test [7]; 6.04 µM (inactive) in test [19]; 4.82 µM (inactive) in [8]; 0.115 µM (active) in test [9]; 3.96 µM (inactive) in test [10]; 4.16 µM (inactive) in test [11]. Also, the GI50 is 4.53 µM (inactive) in test [12]; 4.78 µM (inactive) in test [13]; 2.56 µM (inactive) in [14]; 4.49 µM (inactive) in [20]; 4.09 µM (inactive) in test [15]; 0.242 µM (active) in [17].

On to `Cc1c2ccccc2c(C)n2c1nc1ccccc12`, for which the GI50 in test [18] was 9.35 µM (inactive); in [1] it was 83 µM (inactive); in [2] it was 6.98 µM (inactive); in test [3], 4.56 µM (inactive); in test [4], 5.41 µM (inactive); in test [5] it was 4.54 µM. For the same compound, the GI50 is 4.65 µM (inactive) in test [6]; 4.68 µM (inactive) in [7]; 12.2 µM (inactive) in test [8]; 6.5 µM (inactive) in test [9]; 18.5 µM (inactive) in test [10]; 8.57 µM (inactive) in test [11]. Further, the GI50 is 5.2 µM (inactive) in test [12]; 9.89 µM (inactive) in test [13]; 7.16 µM (inactive) in test [14]; 10.2 µM (inactive) in test [20]; 14 µM (inactive) in test [15]; 2.9 µM (inactive) in [17].

On to `Brc1ccc(-c2cn3ccncc3n2)cc1`, for which the GI50 in test [18] was > 100 µM (inactive); in [2], > 100 µM (inactive); in test [3], > 100 µM (inactive); in test [4], > 100 µM (inactive); in [5] it was more than 100 µM; in test [6], > 100 µM (inactive). The GI50 in [7], in test [19], in test [8], in test [9], in test [10] and in [11] was > 100 µM (inactive) in each case. Moreover, the GI50 in test [12] was > 100 µM (inactive); in test [13], > 100 µM (inactive); in test [14] it was > 100 µM (inactive); in test [20], > 100 µM (inactive); in test [15], 63.8 µM (inactive); in [16], > 100 µM (inactive). Moreover, the GI50 in [17] is 60.3 µM (inactive).

Consider `O=C(O)c1cc2cc(c1)/N=C/c1ccccc1OCc1cccc(n1)COc1ccccc1/C=N/2`, for which the GI50 in test [18] was 11.1 µM (inactive); in test [1], 12.2 µM (inactive); in test [2], 24 µM (inactive); in [3], 8.17 µM (inactive); in test [4], 5.11 µM (inactive); in test [5], 8.45 µM. Besides, the GI50 in [6] is 9.14 µM (inactive); in test [7] it was 10.6 µM (inactive); in [19], 23.8 µM (inactive); in test [8] it was 6.73 µM (inactive); in [9] it was 6.38 µM (inactive); in test [10], > 25 µM (inactive). The GI50 is 5.93 µM (inactive) in test [11]; 14.8 µM (inactive) in test [12]; 13.2 µM (inactive) in [13]; 7.41 µM (inactive) in [14]; 8.45 µM (inactive) in [20]; > 25 µM (inactive) in test [15]. In addition, the GI50 in [17] is 20 µM (inactive).
